Measurements reported in patent publication US6015805A, “17β-nitro-11β-arylisteroids and their derivatives having agonist or antagonist hormonal properties” (Research Triangle Research North Carolina, priority 1999, dated 2000).

How the values were obtained:
[1] = biological target: T1, glucocorticoid receptor (rGR) (Oryctolagus cuniculus, UniProt P59667); assay: Receptor binding (rabbit), glucocorticoid receptor; conditions: relative to dexamethasone = 100
T1 construct: the source of the glucocorticoid receptor was the thymus of the estrogen-primed immature female rabbit; from tissue; host or cells: thymus of the estrogen-primed immature female rabbit
T1 sequence (P59667 1-772): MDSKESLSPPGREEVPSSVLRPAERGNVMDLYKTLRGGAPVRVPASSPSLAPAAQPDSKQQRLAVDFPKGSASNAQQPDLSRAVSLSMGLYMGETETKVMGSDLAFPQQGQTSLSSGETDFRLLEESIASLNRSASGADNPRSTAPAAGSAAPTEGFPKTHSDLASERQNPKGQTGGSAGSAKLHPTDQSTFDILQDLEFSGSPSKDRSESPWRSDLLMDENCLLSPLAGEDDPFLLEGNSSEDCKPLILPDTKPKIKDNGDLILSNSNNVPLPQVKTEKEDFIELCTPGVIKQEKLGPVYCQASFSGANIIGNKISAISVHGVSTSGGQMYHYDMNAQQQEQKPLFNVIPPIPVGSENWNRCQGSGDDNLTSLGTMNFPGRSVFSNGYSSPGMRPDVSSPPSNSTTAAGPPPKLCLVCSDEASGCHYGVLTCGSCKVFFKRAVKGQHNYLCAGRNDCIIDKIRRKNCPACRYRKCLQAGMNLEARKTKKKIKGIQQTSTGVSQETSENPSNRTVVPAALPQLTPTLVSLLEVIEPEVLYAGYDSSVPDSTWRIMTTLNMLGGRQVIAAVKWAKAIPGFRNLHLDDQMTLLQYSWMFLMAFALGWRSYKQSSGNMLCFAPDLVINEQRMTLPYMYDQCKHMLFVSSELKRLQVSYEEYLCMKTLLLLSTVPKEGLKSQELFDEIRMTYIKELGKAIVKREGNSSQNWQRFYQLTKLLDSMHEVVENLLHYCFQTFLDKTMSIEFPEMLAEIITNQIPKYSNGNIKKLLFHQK
Experimental: (§1) The affinity of the compounds for hormone receptors for progestins and glucocorticoids from rabbits was determined by standard procedures similar to those that have been described in C. E. Cook, et al., Human Reproduction, Volume 9, supplement 1, pp. 32-39 (1994). However, the source of the glucocorticoid receptor was the thymus of the estrogen-primed immature female rabbit. The affinity of the compounds for the human progesterone hormone receptor was determined by standard procedures similar to those that have been described in Horwitz, et al., Cell, 28: 633-42 (1982) and Mockus, et al., Endocrinology, 110: 1564-71 (1982). The receptor was obtained in cytosol from human T-47D breast cells and [^3 H]-R5020 was used as the radioligand. T47D cells (1 billion/mL) were homogenized in TEDG buffer (10 mM Tris, 1.5 mM EDTA, 1 mM dithiothreitol, 1 mM sodium molybdate, and 10% glycerol) using a Dounce pestle A, and the homogenate was centrifuged at 34,000×g for 1 hour. The supernatant was stored at -80° C. An aliquot of receptor preparation was combined with test compound, 0.4 nM [^3 H]-R5020, and TEDG buffer to a final volume of 150 ,μL and incubated for 4 hours at 4° C. in microtiter plates. At the end of incubation 40 μL 40% polyethylene glycol and 15 μL 1% human gamma globulin was added to the incubate and the contents of each well were harvested onto double thick B filter mats (Wallac LKB) using a TomTec harvester. A film of Meltilux scintillant wax was applied to the dried filter mats and the mats were counted in a scintillation counter to determine inhibition of [^3 H]-R5020 binding. Data are expressed as lC50 values, i.e., the concentration of compound that inhibits radioligand binding by 50%.

progestin receptor (rPR) = biological target: T2, progestin receptor (rPR) (Oryctolagus cuniculus, UniProt P06186); assay: Receptor binding (rabbit), progestin receptor; conditions: for Ratio PR/GR: ratio of rPR to rGR relative affinities; for Relative Binding Affinity, rPR, Relative Affinity (Progesterone): relative to progesterone = 100, rabbit progestin receptor
T2 construct: hormone receptors for progestins and glucocorticoids from rabbits; from tissue; host or cells: rabbit
T2 sequence (P06186 1-930): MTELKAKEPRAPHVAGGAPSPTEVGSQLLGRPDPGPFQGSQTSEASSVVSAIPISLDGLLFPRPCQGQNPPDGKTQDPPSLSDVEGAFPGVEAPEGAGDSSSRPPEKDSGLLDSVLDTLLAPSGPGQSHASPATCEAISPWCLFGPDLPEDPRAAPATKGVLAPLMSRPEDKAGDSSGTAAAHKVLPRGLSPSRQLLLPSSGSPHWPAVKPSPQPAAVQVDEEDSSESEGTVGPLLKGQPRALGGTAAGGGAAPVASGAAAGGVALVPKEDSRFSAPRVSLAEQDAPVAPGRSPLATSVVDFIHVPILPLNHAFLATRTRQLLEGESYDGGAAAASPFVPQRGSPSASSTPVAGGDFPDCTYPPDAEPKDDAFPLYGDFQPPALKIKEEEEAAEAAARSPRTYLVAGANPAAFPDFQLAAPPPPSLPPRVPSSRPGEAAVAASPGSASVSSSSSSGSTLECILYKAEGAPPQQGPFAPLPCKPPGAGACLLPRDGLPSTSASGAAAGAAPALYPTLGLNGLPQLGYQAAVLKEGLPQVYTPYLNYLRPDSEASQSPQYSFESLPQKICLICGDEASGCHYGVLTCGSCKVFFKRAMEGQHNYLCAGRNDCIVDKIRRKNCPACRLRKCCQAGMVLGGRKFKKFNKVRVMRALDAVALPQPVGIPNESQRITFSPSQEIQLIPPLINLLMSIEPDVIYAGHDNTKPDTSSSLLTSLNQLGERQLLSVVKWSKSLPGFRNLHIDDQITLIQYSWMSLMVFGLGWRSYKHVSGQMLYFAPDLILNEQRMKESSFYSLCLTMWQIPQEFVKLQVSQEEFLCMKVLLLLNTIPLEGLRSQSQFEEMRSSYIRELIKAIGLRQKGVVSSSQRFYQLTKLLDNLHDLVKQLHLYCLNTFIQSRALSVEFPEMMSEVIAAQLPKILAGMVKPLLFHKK

glucocorticoid receptor = conditions: in words; cited from earlier work
[2] = test system: estrogen-primed immature female rabbits; assay: Anti-Clauberg assay (oral test compound with subcutaneous progesterone); format: in vivo, rabbit; conditions: given orally together with subcutaneous progesterone; McPhail Index
rabbits [3] = assay: Anti-McGinty assay (antiprogestational activity, test compound plus progesterone); format: in vivo, rabbit; design: key to McPhail Index, Anti-McGinty Assay, Standard / McPhail Index, Anti-McGinty Assay (Antagonist): McPhail scoring scale for progestational endometrial response; conditions: for McPhail Index, Anti-McGinty Assay (Antagonist): plus progesterone
Experimental: (§2) Progestational activity and antiprogestational activity were determined in rabbits by means of the McGinty test (test compound alone, procedure of McGinty et al., Endocrinology, 24: 829-832 (1939)) or anti-McGinty test (test compound plus progesterone, procedure of Tamara et al., Jpn. J. Fertil Steril 24: 48-81 (1979)). Results were scored according to McPhail (McPhail, J Physiol., 83: 146 (1934)). These are standard procedures known to those skilled in the art. The results of these assays are shown in Tables 4 (agonist activity) and 5 (antagonist activity). […] Physiol, 83: 146 (1934)).

rabbits [4] = assay: McGinty assay (progestational activity, test compound alone); format: in vivo, rabbit; design: key: McPhail scoring scale for progestational endometrial response
Experimental: as §2

[5] = biological target: T3, human progesterone hormone receptor (hPR) (Homo sapiens, UniProt P06401); assay: Receptor binding (human), inhibition of [^3 H]-R5020 binding; conditions: cytosol from human T-47D cells; 0.4 nM [^3 H]-R5020; 4 hours at 4° C.
T3 construct: The receptor was obtained in cytosol from human T-47D breast cells; endogenous in cells; host or cells: T-47D human breast cells (cytosol)
T3 sequence (P06401 1-933): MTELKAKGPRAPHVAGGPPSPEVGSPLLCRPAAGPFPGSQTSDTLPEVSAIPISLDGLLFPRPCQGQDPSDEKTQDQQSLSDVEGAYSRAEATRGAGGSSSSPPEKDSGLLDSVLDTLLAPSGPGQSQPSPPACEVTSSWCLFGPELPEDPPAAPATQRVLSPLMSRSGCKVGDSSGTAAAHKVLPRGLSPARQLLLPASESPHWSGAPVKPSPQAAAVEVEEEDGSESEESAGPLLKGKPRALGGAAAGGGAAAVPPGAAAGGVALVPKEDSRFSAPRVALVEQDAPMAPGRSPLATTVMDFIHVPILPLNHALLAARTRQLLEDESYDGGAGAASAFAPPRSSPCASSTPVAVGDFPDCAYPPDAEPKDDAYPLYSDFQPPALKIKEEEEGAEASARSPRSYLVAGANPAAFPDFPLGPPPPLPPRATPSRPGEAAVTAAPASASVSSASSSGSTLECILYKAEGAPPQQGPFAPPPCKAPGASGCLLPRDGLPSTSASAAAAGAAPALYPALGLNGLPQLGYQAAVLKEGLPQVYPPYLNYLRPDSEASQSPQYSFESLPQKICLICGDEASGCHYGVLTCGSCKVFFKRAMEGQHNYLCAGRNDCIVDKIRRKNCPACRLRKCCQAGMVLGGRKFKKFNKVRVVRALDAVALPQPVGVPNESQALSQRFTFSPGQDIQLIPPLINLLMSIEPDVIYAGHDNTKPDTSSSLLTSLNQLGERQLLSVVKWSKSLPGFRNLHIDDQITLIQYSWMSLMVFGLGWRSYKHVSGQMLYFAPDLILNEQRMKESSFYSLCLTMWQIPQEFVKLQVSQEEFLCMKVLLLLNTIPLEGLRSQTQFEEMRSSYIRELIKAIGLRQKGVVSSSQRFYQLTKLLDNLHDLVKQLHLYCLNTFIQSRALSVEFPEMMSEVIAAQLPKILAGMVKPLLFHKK
Experimental: as §1

| Structure (SMILES) | Relative Binding Affinity, rGR, Relative Affinity (Dexamethasone) [1] | Ratio PR/GR (progestin receptor (rPR)) | Relative Binding Affinity, rPR, Relative Affinity (Progesterone) (progestin receptor (rPR)) | also measured |
| --- | --- | --- | --- | --- |
| C[S+]([O-])c1ccc([C@H]2C[C@@]3(C)[C@@H](CC[C@]3(CCCO)[N+](=O)[O-])[C@@H]3CCC4=CC(=O)CCC4=C32)cc1 (stereo partly drawn) [I 4-MeS(O) H O H --(CH2)3 OH, 17α-(3-Hydroxypropyl)-11β-[4-(methylsulfinyl)phenyl]-17β-nitroestra-4,9-dien-3-one] | < 2 | > 10 | 23 | – |
| CC#C[C@]1(O)CC[C@H]2[C@@H]3CCC4=CC(=O)CCC4=C3[C@@H](c3ccc(N(C)C)cc3)C[C@@]21C [mifepristone] | – | – | – | glucocorticoid or antiglucocorticoid activity as side-effect (glucocorticoid receptor): significant side-effect |
| CSc1ccc([C@H]2C[C@@]3(C)[C@@H](CC[C@]3(CCCO)[N+](=O)[O-])[C@@H]3CCC4=CC(=O)CCC4=C32)cc1 [I 4-MeS H O H --(CH2)3 OH, 17α-(3-Hydroxypropyl)-11β-[4-(methylthio)phenyl]-17β-nitroestra-4,9-dien-3-one] | 3 | 20.3 | 61 | – |
| CSc1ccc([C@H]2C[C@@]3(C)[C@@H](CC[C@]3(C=CCO)[N+](=O)[O-])[C@@H]3CCC4=CC(=O)CCC4=C32)cc1 [I 4-MeS H O H CH=CHCH2 OH] | – | – | 32 | – |
| CC#C[C@]1([N+](=O)[O-])CC[C@H]2[C@@H]3CCC4=CC(=O)CCC4=C3[C@@H](c3ccc(N(C)C)cc3)C[C@@]21C [I 4-Me2 N H O H --CC--CH3, 11β-[4-(N,N-Dimethylamino)phenyl]-17β-nitro-17α-(1-propynyl)estra-4,9-dien-3-one] | 36 | 1.5 | 55 | antiprogestational activity in the anti-Clauberg assay [2]: potent antiprogestin |
| CC(=O)[C@H]1CC[C@H]2[C@@H]3CCC4=CC(=O)CC[C@]4(C)[C@H]3CC[C@]12C [Progesterone, reference compound] | – | – | – | McPhail Index, Anti-McGinty Assay, Standard (rabbits [3]; standard, dose not given): 2.45 ± 0.14; McPhail Index, McGinty Assay, Standard (rabbits [4]; standard, dose not given): 2.45 ± 0.14 |
| CC(=O)c1ccc(C2CC3(C)C(CCC34CCC(C)=[N+]4[O-])C3CCC4=CC(=O)CCC4=C23)cc1 (stereo not drawn) [II 4-CH3 CO H O H -- CH3, 11β-(4-Acetylphenyl)-3',4'-dihydro-5'-methyl-1'-oxo-spiro[estra-4,9-dien-17β,2'(2'H)-pyrrole]-3-one] | – | – | 21 | – |
| CN(C)c1ccc([C@H]2C[C@@]3(C)[C@@H](CC[C@]3(/C=C/CO)[N+](=O)[O-])[C@@H]3CCC4=CC(=O)CCC4=C32)cc1 [I 4-Me2 N H O H CH=CHCH2 OH, 11β-[4-(N,N-Dimethylamino)phenyl]-17α-[(E)-1-(3-hydroxy)propenyl]-17β-nitroestra-4,9-dien-3-one] | 16 | 3.5 | 56 | – |
| CN(C)c1ccc([C@H]2C[C@@]3(C)[C@@H](CC[C@@]34CCC=[N+]4[O-])[C@@H]3CCC4=CC(=O)CCC4=C32)cc1 [II 4-Me2 N H O H -- H, 11β-[4-(N,N-Dimethylamino)phenyl]-3',4'-dihydro-1'-oxo-spiro[estra-4,9-dien-17β,2'(2'H)-pyrrole]-3-one] | – | – | – | McPhail Index, Anti-McGinty Assay (Antagonist) (rabbits [3]; dose 0.3 micrograms): 2.0 ± 0.11; McPhail Index, Anti-McGinty Assay (Antagonist) (rabbits [3]; dose 3 micrograms): 1.83 ± 0.2; McPhail Index, Anti-McGinty Assay (Antagonist) (rabbits [3]; dose 30 micrograms): 0.23 ± 0.23; McPhail Index, McGinty Assay (Agonist) (rabbits [4]; dose 0.3 micrograms): 0 ± 0; McPhail Index, McGinty Assay (Agonist) (rabbits [4]; dose 3 micrograms): 0 ± 0; McPhail Index, McGinty Assay (Agonist) (rabbits [4]; dose 30 micrograms): 0 ± 0; IC50 [5]: 18 nM |
